The values that follow come from PubChem BioAssay (NCI).

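In this assay, cells in 96-well plates receive the compound at five concentrations for 48 hours. Endpoints are linearly interpolated between the surrounding concentrations. TGI is the concentration that stops growth completely.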 *1 amine or outer side, *2 acyl side, *3 side chain or, on linkers, in order; H or OH if unused. Where a SMILES comes first, the peptide text is derived from it. [ ]: non-standard residue; d: D form. ξ: configuration not given here. X22 = O=C(C(CC(O)CO)O[*:1])[*:2]; Ile(3ξ) = CCC(C)[C@H](N)C(=O)O; NMeV = CN[C@H](C(=O)O)C(C)C; NMeA = CN[C@@H](C)C(=O)O; βAla = NCCC(=O)O

Test systems include A549 NSCLC; ACHN renal; CCRF-CEM leukemia; HCC-2998 colon; HL-60(TB) leukemia; K-562 leukemia; LOX IMVI melanoma; MALME-3M melanoma; NCI-H460 lung; NCI-H522 lung; OVCAR-8 ovarian; SK-MEL-2 melanoma; SNB-19 CNS; SW-620 colon; UACC-257 melanoma; CAKI-1 renal.
What all share (assay): NCI tumour cell line growth inhibition, 48 h

As for `CCOC(=O)C1=C(c2ccccc2)N(C(C)=O)Cc2ccccc21`, the TGI with A549 NSCLC was 93.8 µM; in the experiment with ACHN renal it was 66.7 µM; in the experiment on CCRF-CEM leukemia it was 78.7 µM; with HCC-2998 colon, > 100 µM; with HL-60(TB) leukemia it was 37.5 µM; with K-562 leukemia, > 100 µM. Also, the TGI in the experiment on LOX IMVI melanoma is 33.2 µM; in the experiment with MALME-3M melanoma it was 46.7 µM; in the experiment on NCI-H460 lung it was 41.3 µM; in the experiment with NCI-H522 lung it was 51.7 µM; in the experiment on OVCAR-8 ovarian, > 100 µM; with SK-MEL-2 melanoma it was 38.2 µM. The TGI in the experiment with SNB-19 CNS was > 100 µM; in the experiment on SW-620 colon it was > 100 µM; with UACC-257 melanoma, 34.6 µM.

With `C[N+]1(C)C[C@@H](O)C[C@@H]1C(=O)[O-]`, the TGI in the experiment on A549 NSCLC, with ACHN renal, with CCRF-CEM leukemia, with HCC-2998 colon, in the experiment with HL-60(TB) leukemia and in the experiment with K-562 leukemia was > 100 µM in each case. The TGI in the experiment on LOX IMVI melanoma, in the experiment on MALME-3M melanoma, in the experiment on NCI-H460 lung, in the experiment with NCI-H522 lung, with OVCAR-8 ovarian and in the experiment with SK-MEL-2 melanoma was > 100 µM in each case. The TGI in the experiment with SNB-19 CNS, with SW-620 colon and in the experiment with UACC-257 melanoma was > 100 µM in each case.

Turning to `CCOC(=O)c1c2ccc(/C=C/c3ccccc3)ccc-2c(C(=O)OCC)c1N`, the TGI in the experiment with A549 NSCLC, in the experiment with ACHN renal, with CAKI-1 renal, with CCRF-CEM leukemia, with HCC-2998 colon and with HL-60(TB) leukemia was > 100 µM each time. Moreover, the TGI with K-562 leukemia, in the experiment with LOX IMVI melanoma, with MALME-3M melanoma, in the experiment on NCI-H460 lung, with NCI-H522 lung and in the experiment with SK-MEL-2 melanoma was > 100 µM throughout. The TGI in the experiment on SNB-19 CNS, in the experiment on SW-620 colon and in the experiment on UACC-257 melanoma was > 100 µM in each case.

Regarding `N#Cc1cn(-c2c3ccccc3nc3ccccc23)c(=O)[nH]c1=O`, the TGI is 24 µM with A549 NSCLC; 34.8 µM in the experiment on ACHN renal; 45.6 µM with CAKI-1 renal; 41.7 µM with CCRF-CEM leukemia; 30.6 µM in the experiment on HL-60(TB) leukemia; 23.3 µM with K-562 leukemia. In addition, the TGI with LOX IMVI melanoma was found to be 21.2 µM; in the experiment with MALME-3M melanoma, 24.3 µM; in the experiment on NCI-H522 lung it was 18.3 µM; with OVCAR-8 ovarian, 27.6 µM; with SK-MEL-2 melanoma it was 24.9 µM; in the experiment with SNB-19 CNS, 90.7 µM. The TGI in the experiment with SW-620 colon came to 38 µM; with UACC-257 melanoma it was 27.7 µM.

With `Cc1ccc2nc3c(C)cc(=O)cc-3sc2c1`, the TGI in the experiment with A549 NSCLC was determined as 54.6 µM; with ACHN renal, 53.1 µM; with CAKI-1 renal, 37.4 µM; in the experiment on CCRF-CEM leukemia, 33.1 µM; in the experiment with HCC-2998 colon, 70.9 µM; in the experiment with HL-60(TB) leukemia, 25.2 µM. Also, the TGI with K-562 leukemia is 31.5 µM; with MALME-3M melanoma, 81.1 µM; in the experiment on NCI-H460 lung, 60.6 µM; in the experiment with NCI-H522 lung it was 45.1 µM; with OVCAR-8 ovarian, > 100 µM; in the experiment on SK-MEL-2 melanoma it was 52.7 µM. For the same compound, the TGI with SNB-19 CNS was > 100 µM; with SW-620 colon, 31.1 µM; in the experiment with UACC-257 melanoma it was 59.2 µM.

Consider `COC(=O)C(Cc1nc2ccccc2[nH]c1=O)C(=O)C(=O)Nc1ccc(F)cc1` (centres undefined), for which the TGI with A549 NSCLC, in the experiment with ACHN renal, in the experiment with CAKI-1 renal, in the experiment on CCRF-CEM leukemia, with HCC-2998 colon and in the experiment with HL-60(TB) leukemia was > 100 µM throughout. For the same compound, the TGI with LOX IMVI melanoma was > 100 µM; with MALME-3M melanoma, 79.5 µM; in the experiment on NCI-H460 lung, > 100 µM; in the experiment with NCI-H522 lung it was 22.3 µM; in the experiment with OVCAR-8 ovarian, 38.6 µM; in the experiment with SK-MEL-2 melanoma it was > 100 µM. In addition, the figures for the TGI in the experiment on SNB-19 CNS, in the experiment with SW-620 colon and in the experiment on UACC-257 melanoma were > 100 µM, 42.8 µM and > 100 µM, respectively.

For `CCC(C)[C@@H]1NC(=O)[C@@H]2CCCN2C(=O)C(CC(O)CO)OC(=O)CCNC(=O)[C@H](C)N(C)C(=O)[C@H](C(C)C)N(C)C1=O` (some centres undefined) (cyclo([Ile(3ξ)][NMeV][NMeA][βAla][X22]P)), the TGI in the experiment on A549 NSCLC, in the experiment on CAKI-1 renal, in the experiment on CCRF-CEM leukemia, in the experiment on HL-60(TB) leukemia, in the experiment with K-562 leukemia and with LOX IMVI melanoma was > 100 µM each time. Besides, the TGI in the experiment on MALME-3M melanoma, in the experiment on NCI-H460 lung, in the experiment with OVCAR-8 ovarian, with SK-MEL-2 melanoma, in the experiment on SNB-19 CNS and in the experiment with SW-620 colon was > 100 µM in each case. The TGI with UACC-257 melanoma was > 100 µM.

For the compound `COC(=O)C1(O)c2ccccc2N=C2C1CCN2C` (centres undefined), the TGI in the experiment on A549 NSCLC, in the experiment on ACHN renal, in the experiment with CAKI-1 renal, in the experiment on CCRF-CEM leukemia, in the experiment with HCC-2998 colon and in the experiment with HL-60(TB) leukemia was > 100 µM each time. The TGI in the experiment with K-562 leukemia, in the experiment with LOX IMVI melanoma, in the experiment on MALME-3M melanoma, with NCI-H460 lung, in the experiment on NCI-H522 lung and in the experiment on OVCAR-8 ovarian was > 100 µM each time. Besides, the TGI in the experiment on SK-MEL-2 melanoma, with SNB-19 CNS, with SW-620 colon and in the experiment on UACC-257 melanoma was > 100 µM in each case.

Consider `O=C(O)COc1ccc(C(=O)/C(SS/C(C(=O)c2ccc(OCC(=O)O)c(Cl)c2Cl)=C2\C=C(c3ccccc3Cl)SS2)=C2/C=C(c3ccccc3Cl)SS2)c(Cl)c1Cl`, for which the TGI in the experiment with A549 NSCLC is > 100 µM; in the experiment on ACHN renal, > 68.9 µM; in the experiment with CAKI-1 renal, > 94.7 µM; in the experiment on CCRF-CEM leukemia, 33.5 µM; in the experiment with HCC-2998 colon, > 100 µM; with HL-60(TB) leukemia, 7.01 µM. Also, the TGI is > 49 µM in the experiment with K-562 leukemia; 28.5 µM in the experiment with LOX IMVI melanoma; > 100 µM with MALME-3M melanoma; 52 µM with NCI-H460 lung; 11.3 µM with NCI-H522 lung; > 100 µM in the experiment on OVCAR-8 ovarian. In addition, the TGI is 50 µM in the experiment with SK-MEL-2 melanoma, > 100 µM in the experiment on SNB-19 CNS, > 56.5 µM in the experiment on SW-620 colon and > 83.1 µM in the experiment on UACC-257 melanoma.
